{"source": "patent US20250368767A1", "about": "“POLYMER FOR INHIBITING SARS-COV-2 AND OTHER PATHOGENS” (FREIE UNIVERSITÄT BERLIN, priority 2022, published 2025)", "key": {"[1]": {"test_system": "wild-type (WT) SARS-CoV-2", "assay_type": "cell-based", "conditions": "plaque reduction assay"}, "zeta potential": {"experiment": "zeta potential", "assay_type": "physicochemical", "protocol": "Overall negative charge of the polymers owing to sulfate groups was confirmed by very high negative value of zeta potential (cf. Table 9). To check the morphology of P1 in aqueous solution, cryo-electron microscopy (cryo-EM) was performed. In accordance with the inventors' hypothesis, worm-like defined fibers having a length between approximately 150 nm and 215 nm were observed. Tomography of the sample was measured to calculate accurate length and width of the fibers."}}, "data": [{"substance": "Heparin", "values": [{"measurement": "IC50 (μg/mL) against SARS-CoV-2", "setting": "[1]", "result": "1383.0 ± 255.1", "unit": "µg/mL"}, {"measurement": "IC50", "setting": "[1]; read-out: IC50 (μM) against SARS-CoV-2", "result": "92.3 ± 19.4", "unit": "µM"}, {"measurement": "ξ potential (mV)", "setting": "zeta potential", "result": "−31.2 ± 3.9", "unit": "mV"}]}]}
